Test results published in patent publication US20240109853A1 (Shanghai Yao Yuan Biotechnology Co., Ltd., priority 2020, published 2024).
Like-named read-outs stand apart in the source and are kept apart here.

Key:
hALPK1-V1092A = hALPK1-V1092A (Homo sapiens (Human), UniProt Q96QP1, V1092A); experiment: cell-based
Description: Accordingly, we used IL-8 secretion as an indicator of activated ALPK1 inhibition in cells expressing these mutations.
Transfection was performed according to manufacturer's protocols (Lipofectamine™ 3000, ThermoFisher). Transfected cells were selected, seeded onto 96-well plates and treated with serial dilutions of the test compounds for 6.5 hr. Following treatment, cell viability was determined using a luminescent cell viability assay (Cell Counting-Lite Assay or “CCL Assay” from Vazyme Biotech Co., Ltd.) and cell free supernatants were collected and analyzed for IL-8 protein by IL-8 ELISA as described above.
Fresh medium and compound were added at 18 hours. Cell viability and IL-8 secretion were determined 6 hours after the second addition of compound, using the CCL assay and IL-8 ELISA as described above.

ALPK1 = ALPK1 (Homo sapiens (Human), UniProt Q96QP1); experiment: ALPK1 in vitro kinase assay (HTRF of TIFA phosphorylation); format: biochemical
[1] = tested on: ALPK1-dependent NFκB reporter gene activation in HEK293 cells stably expressing an NF-kB reporter (G9 cells); experiment: NFκB gene reporter alkaline phosphatase assay; format: cell-based; conditions: read-out: NFkB assay IC50
In short: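 Inhibition of ALPK1-driven NF-kB activation is measured as reduced reporter phosphatase activity after agonist challenge with D-glycero-D-manno-6-fluoro-heptose-1β-S-ADP. Cells receive serially diluted compound 30 min beforehand. Values are IC50s from non-linear regression.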

[2] = ALPK1 2 nM, TIFA substrate, ADP-Heptose activator, HTRF readout

Chain of ALPK1 (Q96QP1 whole entry): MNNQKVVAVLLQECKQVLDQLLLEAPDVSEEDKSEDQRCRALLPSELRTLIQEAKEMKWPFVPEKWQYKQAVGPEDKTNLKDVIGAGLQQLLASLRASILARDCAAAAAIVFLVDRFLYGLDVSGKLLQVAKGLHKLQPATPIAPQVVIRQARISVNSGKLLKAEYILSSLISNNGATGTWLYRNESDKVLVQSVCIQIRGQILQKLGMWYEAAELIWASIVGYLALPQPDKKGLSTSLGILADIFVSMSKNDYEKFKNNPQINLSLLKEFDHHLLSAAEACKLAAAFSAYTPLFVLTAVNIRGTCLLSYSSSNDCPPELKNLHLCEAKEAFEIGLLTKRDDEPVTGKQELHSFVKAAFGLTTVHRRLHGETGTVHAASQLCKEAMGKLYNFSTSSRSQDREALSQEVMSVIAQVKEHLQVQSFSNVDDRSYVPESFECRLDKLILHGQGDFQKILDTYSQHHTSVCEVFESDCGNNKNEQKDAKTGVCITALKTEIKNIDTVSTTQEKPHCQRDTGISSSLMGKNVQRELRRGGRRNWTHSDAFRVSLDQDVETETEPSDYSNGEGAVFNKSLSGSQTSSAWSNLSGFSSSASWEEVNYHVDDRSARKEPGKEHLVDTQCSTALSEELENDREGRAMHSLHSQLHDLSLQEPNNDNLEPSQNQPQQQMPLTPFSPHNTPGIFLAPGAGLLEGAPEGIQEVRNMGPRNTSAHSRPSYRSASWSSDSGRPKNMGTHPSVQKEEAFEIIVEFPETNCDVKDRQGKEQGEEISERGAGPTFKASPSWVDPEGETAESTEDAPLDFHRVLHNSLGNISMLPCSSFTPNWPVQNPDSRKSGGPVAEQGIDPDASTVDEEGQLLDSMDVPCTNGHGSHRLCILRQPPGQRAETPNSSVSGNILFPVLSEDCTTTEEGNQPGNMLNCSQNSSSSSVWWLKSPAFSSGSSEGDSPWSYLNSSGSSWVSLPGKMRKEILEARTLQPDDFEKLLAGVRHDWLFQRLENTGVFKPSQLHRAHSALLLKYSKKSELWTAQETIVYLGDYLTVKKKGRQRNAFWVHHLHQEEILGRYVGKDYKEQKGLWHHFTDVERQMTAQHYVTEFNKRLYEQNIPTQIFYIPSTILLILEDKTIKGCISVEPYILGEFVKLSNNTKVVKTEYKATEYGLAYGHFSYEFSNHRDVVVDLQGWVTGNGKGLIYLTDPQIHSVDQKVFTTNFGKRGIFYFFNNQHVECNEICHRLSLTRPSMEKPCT
Chain of hALPK1-V1092A (Q96QP1 whole entry V1092A): as the sequence (Q96QP1 whole entry) above, with V1092A counted along it

SMILES	IC50 (hALPK1-V1092A)	IC50 (ALPK1)	IC50 ([1]; Homo sapiens, HEK293)	IC50 [1]	IC50 (ALPK1; [2])
C#C[C@@](C)(c1ccc(Cl)cc1)c1csc(NC(=O)N2CC(CN3CCNCC3)C2)n1 (stereo in doubt) [Example A292, N-(4-(2-(4-chlorophenyl)but-3-yn-2-yl)thiazol-2-yl)-3-(piperazin-1-ylmethyl)azetidine-1-carboxamide]	547 nM	43 nM	650 nM	–	–
C#C[C@@](C)(c1ccc(Cl)cc1)c1csc(NC(=O)NC(C)CO)n1 (stereo in doubt) [Example A312, 1-(4-(2-(4-chlorophenyl)but-3-yn-2-yl)thiazol-2-yl)-3-(1-hydroxypropan-2-yl)urea]	16000 nM	–	2120 nM	–	–
C#C[C@@](C)(c1ccc(Cl)cc1)c1csc(NC(=O)NC(C)CO)n1 (stereo in doubt) [Example A313, 1-(4-(2-(4-chlorophenyl)but-3-yn-2-yl)thiazol-2-yl)-3-(1-hydroxypropan-2-yl)urea]	10200 nM	–	–	2820 nM	–
C#C[C@](C)(c1ccc(Cl)cc1)c1csc(NC(=O)NC(C)CO)n1 (stereo in doubt) [Example A314, 1-(4-(2-(4-chlorophenyl)but-3-yn-2-yl)thiazol-2-yl)-3-(1-hydroxypropan-2-yl)urea]	4000 nM	–	800 nM	–	–
C#C[C@](C)(c1ccc(Cl)cc1)c1csc(NC(=O)NC(C)CO)n1 (stereo in doubt) [Example A315, 1-(4-(2-(4-chlorophenyl)but-3-yn-2-yl)thiazol-2-yl)-3-(1-hydroxypropan-2-yl)urea]	2770 nM	–	–	650 nM	–
C#C[C@](C)(c1ccc(Cl)cc1)c1csc(NC(=O)NCC(C)O)n1 (stereo in doubt) [Example A316, 1-(4-(2-(4-chlorophenyl)but-3-yn-2-yl)thiazol-2-yl)-3-(2-hydroxypropyl)urea]	16400 nM	–	1810 nM	–	–
C#C[C@@](C)(c1ccc(Cl)cc1)c1csc(NC(=O)NCC(C)O)n1 (stereo in doubt) [Example A317, 1-(4-(2-(4-chlorophenyl)but-3-yn-2-yl)thiazol-2-yl)-3-(2-hydroxypropyl)urea]	1930 nM	–	970 nM	–	–
C#C[C@@](C)(c1ccc(Cl)cc1)c1csc(NC(=O)NCC(C)O)n1 (stereo in doubt) [Example A319, 1-(4-(2-(4-chlorophenyl)but-3-yn-2-yl)thiazol-2-yl)-3-(2-hydroxypropyl)urea]	7860 nM	–	–	670 nM	–
C#C[C@@](C)(c1ccc(Cl)cc1)c1csc(NC(=O)c2ccc(N3CCNCC3)cc2)n1 (stereo in doubt) [Example B067, N-(4-(2-(4-chlorophenyl)but-3-yn-2-yl)thiazol-2-yl)-4-(piperazin-1-yl)benzamide]	215 nM	–	–	–	90 nM
C#C[C@](C)(c1ccc(Cl)cc1)c1csc(NC(=O)c2ccc(N3CCNCC3)cc2)n1 (stereo in doubt) [Example B068, N-(4-(2-(4-chlorophenyl)but-3-yn-2-yl)thiazol-2-yl)-4-(piperazin-1-yl)benzamide]	27100 nM	–	–	–	530 nM
C#C[C@](C)(c1ccc(Cl)cc1)c1csc(NC(=O)c2c(F)ccc(N3CCNCC3)c2F)n1 (stereo in doubt) [Example B075, N-(4-(2-(4-chlorophenyl)but-3-yn-2-yl)thiazol-2-yl)-2,6-difluoro-3-(piperazin-1-yl)benzamide]	13000 nM	–	–	–	308 nM
C#C[C@@](C)(c1ccc(Cl)cc1)c1csc(NC(=O)c2c(F)ccc(N3CCNCC3)c2F)n1 (stereo in doubt) [Example B076, N-(4-(2-(4-chlorophenyl)but-3-yn-2-yl)thiazol-2-yl)-2,6-difluoro-3-(piperazin-1-yl)benzamide]	128 nM	–	–	–	85 nM
C#C[C@](C)(c1ccc(F)cc1)c1csc(NC(=O)c2c(F)cc(N3CCNCC3)cc2F)n1 (stereo in doubt) [Example C034, 2,6-difluoro-N-(4-(2-(4-fluorophenyl)but-3-yn-2-yl)thiazol-2-yl)-4-(piperazin-1-yl)benzamide]	277 nM	–	–	–	40 nM
C#C[C@@](C)(c1ccc(F)cc1)c1csc(NC(=O)c2c(F)cc(N3CCNCC3)cc2F)n1 (stereo in doubt) [Example C035, 2,6-difluoro-N-(4-(2-(4-fluorophenyl)but-3-yn-2-yl)thiazol-2-yl)-4-(piperazin-1-yl)benzamide]	67 nM	–	–	–	19 nM
C#C[C@](C)(c1ccc(Cl)c(F)c1)c1csc(NC(=O)c2c(F)cc(N3CCNCC3)cc2F)n1 (stereo in doubt) [Example C037, N-(4-(2-(4-chloro-3-fluorophenyl)but-3-yn-2-yl)thiazol-2-yl)-2,6-difluoro-4-(piperazin-1-yl)benzamide]	8300 nM	–	–	–	151 nM
C#C[C@@](C)(c1ccc(Cl)c(F)c1)c1csc(NC(=O)c2c(F)cc(N3CCNCC3)cc2F)n1 (stereo in doubt) [Example C038, N-(4-(2-(4-chloro-3-fluorophenyl)but-3-yn-2-yl)thiazol-2-yl)-2,6-difluoro-4-(piperazin-1-yl)benzamide]	352 nM	–	–	–	17 nM

SMILES	IC50 (hALPK1-V1092A)	IC50 (ALPK1)	IC50 ([1]; Homo sapiens, HEK293)	IC50 [1]	IC50 (ALPK1; [2])
C#C[C@](C)(c1ccc(C)cc1)c1csc(NC(=O)c2c(F)cc(N3CCNCC3)cc2F)n1 (stereo in doubt) [Example C040, 2,6-difluoro-N-[4-[1-methyl-1-(p-tolyl)prop-2-ynyl]thiazol-2-yl]-4-piperazin-1-yl-benzamide]	68 nM	–	–	–	29 nM
C#C[C@@](C)(c1ccc(C)cc1)c1csc(NC(=O)c2c(F)cc(N3CCNCC3)cc2F)n1 (stereo in doubt) [Example C041, 2,6-difluoro-N-[4-[1-methyl-1-(p-tolyl)prop-2-ynyl]thiazol-2-yl]-4-piperazin-1-yl-benzamide]	954 nM	–	–	–	7 nM
C#C[C@@](C)(c1ccc(OC)cc1)c1csc(NC(=O)c2c(F)cc(N3CCNCC3)cc2F)n1 (stereo in doubt) [Example C048, 2,6-difluoro-N-(4-(2-(4-methoxyphenyl)but-3-yn-2-yl)thiazol-2-yl)-4-(piperazin-1-yl)benzamide]	5570 nM	–	–	–	16 nM
C#C[C@](C)(c1ccc(Cl)cc1)c1csc(NC(=O)NCCO)n1 [Example A175, (R)-1-(4-(2-(4-chlorophenyl)but-3-yn-2-yl)thiazol-2-yl)-3-(2-hydroxyethyl)urea]	4030 nM	32 nM	1310 nM	–	–
C#C[C@@](C)(c1ccc(Cl)cc1)c1csc(NC(=O)NCCO)n1 [Example A176, (S)-1-(4-(2-(4-chlorophenyl)but-3-yn-2-yl)thiazol-2-yl)-3-(2-hydroxyethyl)urea]	1550 nM	5.4 nM	280 nM	–	–
C#CC(C)(c1ccc(Cl)cc1)c1csc(NC(=O)NCC(O)CO)n1 (stereo not drawn) [Example A244, 1-(4-(2-(4-chlorophenyl)but-3-yn-2-yl)thiazol-2-yl)-3-(2,3-dihydroxypropyl)urea]	4790 nM	72 nM	1030 nM	–	–
C#CC(C)(c1ccc(F)cc1)c1csc(NC(=O)c2c(F)cc(N3CCNCC3CO)cc2F)n1 (stereo not drawn) [Example B099, 2,6-difluoro-N-[4-[1-(4-fluorophenyl)-1-methyl-prop-2-ynyl]thiazol-2-yl]-4-[2-(hydroxymethyl)piperazin-1-yl]benzamide]	427 nM	–	–	–	30 nM
C#CC(C)(c1ccc(OC)cc1)c1csc(NC(=O)c2c(F)cc(N3CCNCC3CO)cc2F)n1 (stereo not drawn) [Example B100, 2,6-difluoro-4-[2-(hydroxymethyl)piperazin-1-yl]-N-[4-[1-(4-methoxyphenyl)-1-methyl-prop-2-ynyl]thiazol-2-yl]benzamide]	429 nM	–	–	–	21 nM
CC(c1ccccc1)c1csc(NC(=O)c2c(F)cc(N3CCNCC3)cc2F)n1 (stereo not drawn) [Example C002, 2,6-difluoro-N-(4-(1-phenylethyl)thiazol-2-yl)-4-(piperazin-1-yl)benzamide]	3370 nM	–	–	–	47 nM
C#C[C@@](C)(c1ccc(Cl)cc1)c1csc(NC(=O)c2c(F)cc(N3CCN(C)CC3)cc2F)n1 [Example C011, (S)-N-(4-(2-(4-chlorophenyl)but-3-yn-2-yl)thiazol-2-yl)-2,6-difluoro-4-(4-methylpiperazin-1-yl)benzamide]	353 nM	–	–	–	18 nM
COCC(C)(c1ccc(Cl)cc1)c1csc(NC(=O)c2c(F)cc(N3CCNCC3)cc2F)n1 (stereo not drawn) [Example C016, N-(4-(2-(4-chlorophenyl)-1-methoxypropan-2-yl)thiazol-2-yl)-2,6-difluoro-4-(piperazin-1-yl)benzamide]	1590 nM	–	–	–	16 nM
COC[C@@](C)(c1ccccc1)c1csc(NC(=O)c2c(F)cc(N3CCNCC3)cc2F)n1 [Example C018, (S)-2,6-difluoro-N-(4-(1-methoxy-2-phenylpropan-2-yl)thiazol-2-yl)-4-(piperazin-1-yl)benzamide]	1920 nM	–	–	–	36 nM
CC#CC(C)(c1ccc(Cl)cc1)c1csc(NC(=O)c2c(F)cc(N3CCNCC3)cc2F)n1 (stereo not drawn) [Example C039, N-(4-(2-(4-chlorophenyl)pent-3-yn-2-yl)thiazol-2-yl)-2,6-difluoro-4-(piperazin-1-yl)benzamide]	959 nM	–	–	–	36 nM
C#Cc1ccc(C(C)(C#C)c2csc(NC(=O)c3c(F)cc(N4CCNCC4)cc3F)n2)cc1 (stereo not drawn) [Example C042, N-[4-[1-(4-ethynylphenyl)-1-methyl-prop-2-ynyl]thiazol-2-yl]-2,6-difluoro-4-piperazin-1-yl-benzamide]	225 nM	–	–	–	101 nM
CC(c1ccccc1)(c1ccc(Cl)cc1)c1csc(NC(=O)c2c(F)cc(N3CCNCC3)cc2F)n1 (stereo not drawn) [Example C046, N-(4-(1-(4-chlorophenyl)-1-phenylethyl)thiazol-2-yl)-2,6-difluoro-4-(piperazin-1-yl)benzamide]	4450 nM	–	–	–	377 nM
